Measured values published in article PMC4437783, “An Improved Method for P2X7R Antagonist Screening” (PLoS ONE, 2015).

How the values were obtained:
Type in all cases: cell-based
[1] = target: T1, P2X7 receptor (mP2X7R) (Mus musculus, UniProt Q9Z1M0); assay: agonist dose-response, PI dye uptake in J774.G8 cells, plate reader
T1 construct: gene P2rx7; natively expressed in J774.G8 macrophages
T1 sequence (Q9Z1M0 1-595): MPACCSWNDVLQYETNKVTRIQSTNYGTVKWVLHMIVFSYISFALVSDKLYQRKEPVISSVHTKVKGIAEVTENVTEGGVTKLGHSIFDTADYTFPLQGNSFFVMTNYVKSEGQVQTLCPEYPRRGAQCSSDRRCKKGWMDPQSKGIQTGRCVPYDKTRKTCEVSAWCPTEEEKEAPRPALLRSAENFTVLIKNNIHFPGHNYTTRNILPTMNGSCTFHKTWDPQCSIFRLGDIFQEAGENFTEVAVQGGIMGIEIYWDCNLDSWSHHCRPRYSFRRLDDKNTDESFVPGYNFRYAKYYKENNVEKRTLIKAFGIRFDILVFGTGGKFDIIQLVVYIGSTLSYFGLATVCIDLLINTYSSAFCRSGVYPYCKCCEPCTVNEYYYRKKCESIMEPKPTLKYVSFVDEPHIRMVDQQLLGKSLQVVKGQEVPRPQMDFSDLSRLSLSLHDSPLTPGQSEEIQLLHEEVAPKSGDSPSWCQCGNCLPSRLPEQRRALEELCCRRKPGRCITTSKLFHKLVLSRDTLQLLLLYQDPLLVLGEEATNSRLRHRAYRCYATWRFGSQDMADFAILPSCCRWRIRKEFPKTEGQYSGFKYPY

[2] = target: T1, P2X7 receptor (mP2X7R); assay: block of ATP-induced PI dye uptake in J774.G8 cells at a single concentration ([…])
[3] = target: T2, P2X7 receptor (P2X7R) (Homo sapiens, UniProt Q99572); assay: block of ATP-induced PI dye uptake in U937 cells at a single concentration ([…])
T2 construct: gene P2RX7; native in U937 human monocyte cells
T2 sequence (Q99572 1-595): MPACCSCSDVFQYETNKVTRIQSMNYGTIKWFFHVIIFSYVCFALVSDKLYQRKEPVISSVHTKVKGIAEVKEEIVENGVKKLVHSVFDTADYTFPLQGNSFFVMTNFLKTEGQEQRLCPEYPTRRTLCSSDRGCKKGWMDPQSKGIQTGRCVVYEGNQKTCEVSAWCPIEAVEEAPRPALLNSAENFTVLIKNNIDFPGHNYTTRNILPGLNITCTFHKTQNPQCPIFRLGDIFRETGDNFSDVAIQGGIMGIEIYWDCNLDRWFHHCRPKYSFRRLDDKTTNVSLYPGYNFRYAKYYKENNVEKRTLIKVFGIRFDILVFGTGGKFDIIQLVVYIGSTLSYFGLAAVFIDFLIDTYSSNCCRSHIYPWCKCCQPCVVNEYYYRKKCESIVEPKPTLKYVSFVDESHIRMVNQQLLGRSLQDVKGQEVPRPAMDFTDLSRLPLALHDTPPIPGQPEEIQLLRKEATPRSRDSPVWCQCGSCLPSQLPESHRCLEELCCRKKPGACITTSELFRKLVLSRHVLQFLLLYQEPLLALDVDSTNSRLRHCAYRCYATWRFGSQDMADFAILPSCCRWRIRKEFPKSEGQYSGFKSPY

[4] = target: T1, P2X7 receptor (mP2X7R); assay: inhibition of ATP-induced PI dye uptake in J774.G8 cells, plate reader
[5] = target: T1, P2X7 receptor (mP2X7R); assay: inhibition of ATP-induced dye uptake in J774.G8 cells, plate reader

Nc1ncnc2c1ncn2[C@@H]1O[C@H](COP(=O)(O)OP(=O)(O)OP(=O)(O)O)[C@@H](O)[C@H]1O [ATP]
EC50 [1]: 700 ± 70 µM

O=C1CSC(=O)N1C(CCc1ccncc1)COc1ccc(-c2cccc([N+](=O)[O-])c2)cc1 (centres unmarked) [AZ, AZ11645373]
block of ATP-induced PI dye uptake in J774.G8 cells at a single concentration (1) [2]: the treatment with the selective P2X7R antagonist AZ11645373 blocked the dye uptake | block of ATP-induced PI dye uptake in U937 cells at a single concentration (10 μ) [3]: the treatment with the selective P2X7R antagonist AZ11645373 blocked the dye uptake

CCOc1ccc(Nc2ccc(/C(=C3C=C/C(=[N+](/CC)Cc4cccc(S(=O)(=O)[O-])c4)C=C/3C)c3ccc(N(CC)Cc4cccc(S(=O)(=O)O)c4)cc3C)cc2)cc1 [BBG, Brilliant Blue G]
IC50 [4]: 1.3 to 2.6 µM

Nc1ncnc2c1ncn2[C@@H](C=O)O[C@@H](C=O)COP(=O)(O)OP(=O)(O)OP(=O)(O)O [OATP, oxidized ATP]
IC50 [5]: 173 to 285 µM
